Reference: patent US11780826B2 (Amgen Inc., priority 2017, dated 2023)

Tested on: Bovine cardiac myofibrils
Assay: In vitro model of dose-dependent myofibril ATPase modulation (AC1.4, pyruvate kinase/lactate dehydrogenase-coupled ATPase assay at pCa25)
Assay type: biochemical
Conditions: concentration at which ATPase activity was 1.4-fold higher than the bottom of the dose curve, mean of a minimum of two independent tests
How it was run: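 We measure calcium-buffered ATPase activity of detergent-skinned bovine cardiac myofibrils at pH 6.80 and 22° C with 1 mM ATP, using a PK/LDH-coupled NADH readout at 340 nm. Values come from four-parameter dose-response fits, averaged over at least two independent runs.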

AC1.4	Compound
0.1585 µM	N#CC1CN(S(=O)(=O)N2C[C@H]3C[C@@H]2[C@H](C(=O)N2CCC[C@@H]2C(=O)NCc2ccc(C(F)(F)F)cc2F)C3)C1 [Example 103, 1-(((1R,4R,6R)-2-((3-cyano-1-azetidinyl)sulfonyl)-2-azabicyclo[2.2.1]hept-6-yl)carbonyl)-N-(2-fluoro-4-(trifluoromethyl)benzyl)-D-prolinamide]
0.1638 µM	N#CC1CN(S(=O)(=O)c2cccc(C(=O)N3CCC[C@@H]3C(=O)N[C@@H](CO)c3ccc(Cl)c(F)c3)c2)C1 [Example 105, N-((1R)-1-(4-chloro-3-fluorophenyl)-2-hydroxyethyl)-1-(3-((3-cyano-1-azetidinyl)sulfonyl)benzoyl)-D-prolinamide]
0.164 µM	Cc1ccc(CNC(=O)[C@H]2CCCN2C(=O)c2cccc(S(=O)(=O)N3CC(C#N)C3)c2)cc1 [Example 106, 1-((3-((3-cyano-1-azetidinyl)sulfonyl)phenyl)carbonyl)-N-(4-methylbenzyl)-D-prolinamide]
0.1732 µM	CCNc1ccc(C)cc1C(=O)N1C[C@@H](O)C[C@@H]1C(=O)N[C@@H](c1cc(F)c(Cl)cc1F)C1COC1 [Example 110, (4S)-N-((R)-(4-chloro-2,5-difluorophenyl)(3-oxetanyl)methyl)-1-(2-(ethylamino)-5-methylbenzoyl)-4-hydroxy-D-prolinamide]

The next lines start with the compound.

Compound	AC1.4
N#CC1CN(S(=O)(=O)c2cccc(C(=O)N3CCC[C@@H]3C(=O)NCc3ccc(C(F)F)cc3)c2)C1 [Example 102, 1-((3-((3-cyano-1-azetidinyl)sulfonyl)phenyl)carbonyl)-N-(4-(difluoromethyl)benzyl)-D-prolinamide]	0.1574 µM
C[C@@H](NC(=O)[C@H]1CCCN1C(=O)[C@H]1CCCN(S(=O)(=O)N2CC(C#N)C2)C1)c1ccc(C(F)F)cc1F [Example 104, 1-(((3S)-1-((3-cyano-1-azetidinyl)sulfonyl)-3-piperidinyl)carbonyl)-N-((1R)-1-(4-(difluoromethyl)-2-fluorophenyl)ethyl)-D-prolinamide]	0.1611 µM
N#CC1CN(S(=O)(=O)N2CCC[C@H](C(=O)N3CCC[C@@H]3C(=O)N[C@H](c3ccc(C(F)(F)F)cc3)C3CC3)C2)C1 [Example 107, 1-(((3S)-1-((3-cyano-1-azetidinyl)sulfonyl)-3-piperidinyl)carbonyl)-N-((S)-cyclopropyl(4-(trifluoromethyl)phenyl)methyl)-D-prolinamide]	0.1642 µM
CCNc1ccc(C)cc1C(=O)N1CCC[C@@H]1C(=O)N[C@@H](c1ccc(C(F)(F)F)cc1F)C1CC1 [Example 108, N-((R)-cyclopropyl(2-fluoro-4-(trifluoromethyl)phenyl)methyl)-1-(2-(ethylamino)-5-methylbenzoyl)-D-prolinamide]	0.1689 µM
N#CC1CN(S(=O)(=O)N2CCC[C@H](C(=O)N3CCOC[C@@H]3C(=O)NCc3ccc(C(F)(F)F)cc3)C2)C1 [Example 109, (3R)-4-(((3S)-1-((3-cyano-1-azetidinyl)sulfonyl)-3-piperidinyl)carbonyl)-N-(4-(trifluoromethyl)benzyl)-3-morpholinecarboxamide]	0.1712 µM
O=C(N[C@@H](c1cc(F)c(Cl)cc1F)C1CC1)[C@H]1C[C@H]2C[C@H]2N1C(=O)c1cccc(S(=O)(=O)CCO)c1 [Example 112, (1R,3R,5R)-N-((R)-(4-chloro-2,5-difluorophenyl)(cyclopropyl)methyl)-2-(3-((2-hydroxyethyl)sulfonyl)benzoyl)-2-azabicyclo[3.1.0]hexane-3-carboxamide]	0.1762 µM
CN(C)S(=O)(=O)c1cccc(C(=O)N2CCC[C@@H]2C(=O)N[C@@H](c2ccc(Cl)c(F)c2)C2CC2)c1 [Example 114, N-((R)-(4-chloro-3-fluorophenyl)(cyclopropyl)methyl)-1-(3-(dimethylsulfamoyl)benzoyl)-D-prolinamide]	0.1771 µM
